Experimental data published in patent US7507739B2, “6-[(substituted)phenyl]triazolopyrimidines as anticancer agents” (Wyeth, priority 2003, dated 2009).
Read-outs that look alike come from different tables or passages of the source.

What was measured:
[1] = tested on: KB cells; experiment: MTS cytotoxicity test with KB cells; type: cell-based; settings: Homo sapiens, read-out: IC50 KB
Source text: (§1) Human cancer cell lines, unless otherwise noted, are obtained from the American Type Culture Collection (Rockville, Md.). The following drug-sensitive parental cell lines, and their derived drug-resistant counterparts, are obtained from the originators as listed: (a) S1 (parental line from a subclone of human colon carcinoma line LS174T) and derived S1-M1-3.2 (herein called S1-M1) which expresses the MXR drug transporter protein, are provided by Dr. L. Greenberger, Wyeth Research (Rabindran, S. K., He, H., Singh, M., Brown, E., Collins, K. I., Annable, T., and Greenberger, L. M. Reversal of a novel multidrug resistance mechanism in human colon carcinoma cells by fumitremorgin C. Cancer Res., 58:5850-5858,1998); (b) parental HL-60 human promyelocytic leukemia line and derived HL-60/ADR, which expresses the MRP1 drug transporter protein, are provided by Dr. M. Center, University of Kansas (McGrath, T., and Center, M. S. Adriamycin resistance in HL60 cells in the absence of detectable P-glycoprotein. Biochem. Biophys. […] J. Biol. Chem., 261: 7762-7770,1986) via Dr. L. Greenberger, Wyeth Research.
(§2) The assay, which is sold in kit form by Promega (Madison, Wis.; CellTiter 96 AQueous Non-Radioactive Cell Proliferation Assay), is based on the conversion by viable cells, but not by dead cells, of the tetrazolium salt, MTS (3-(4,5-dimethylthiazol-2-yl)-5-(3-carboxymethoxyphenyl)-2-(4-sulphophenyl)-2H-tetrazolium, inner salt), into a water-soluble colored formazan which is detected by spectrophotometry. Compounds are tested at nine concentrations, in order to determine IC50 values. For the test procedure, cells are harvested by trypsinization (or, in the case of non-adherent cells, by simple resuspension), washed, counted and distributed to wells of 96-well flat-bottom microtiter plates at 1000 cells per well in 200 μL of medium. In addition, one row of wells on a separate plate received cells as above (“time 0” plate). All plates are incubated at 37° in humidified 5% CO2 in air for about 24 hr.
(§3) On day 2, compounds for test are diluted and added to wells. Compounds are dissolved in DMSO at 10 mg/mL. For each compound, nine serial 2-fold dilutions are prepared in DMSO. Ten μL of each dilution in DMSO is transferred to 100 μL of medium, mixed well, and then 5 μL of this dilution is transferred in quadruplicate to wells containing cells. […] Plates are returned to the incubator for three days. At the time of drug addition to the experimental plates, the MTS assay is run on the “time 0” plate. This produced the “time 0 MTS value” which is related to the number of viable cells per well at the time of drug addition.
(§4) After three days of culture with test compounds (day 5 overall), the MTS assay is done on all wells of the experimental plates. The absorbance values of the quadruplicate sample wells are averaged and divided by the average of the “time 0” values. […] The nine values for each compound are plotted against concentration, and the concentration that produced a relative color yield half way between the maximum and minimum is taken as the IC50 value.
(§5) The KB lines express different amounts of the P-glycoprotein (MDR1) membrane pump which produces resistance to the action of many cytotoxic compounds, including paclitaxel and vincristine. The parental KB line expresses no P-glycoprotein, KB-8-5 expresses moderate levels of the protein, and KB-V1 expresses very high levels.

[2] = tested on: KB-V1 cells; experiment: MTS cytotoxicity test with KB-V1 cells (very high P-glycoprotein); type: cell-based, human; settings: for IC50: Homo sapiens, KB-V1 cells, MTS; for Ratio VI/KB: IC50 on KB VI cells/IC50 on KB cells; for recognition by P-glycoprotein: inferred from IC50 on KB-V1 compared to parental KB line
Source text: as §1, §2, §3, §4, §5

[3] = tested on: HL-60/ADR cells; experiment: MTS cytotoxicity test with HL-60/ADR cells (MRP1); type: cell-based, human; settings: for IC50: Homo sapiens, HL60/ADR, read-out: IC50 HL-60/ADR; for Ratio: IC50 on HL-60/ADR cells/IC50 on HL-60 cells
Source text: as §1, §2, §3, §4
(§6) HL-60/ADR cells overexpress the multidrug resistance protein MRP1 which mediates resistance to some chemotherapeutics (Gottesman, M. M., Fojo, T., and Bates, S. E. Multidrug resistance in cancer: role of ATP-dependent transporters. Nature Rev. Cancer, 2: 48-58, 2002). The IC50 values of representative examples of this invention, as well as reference compounds, on HL-60/ADR are compared to values on the sensitive parental HL-60 line.

[4] = tested on: S1 cells; experiment: MTS cytotoxicity test with S1 cells; type: cell-based; settings: Homo sapiens
Source text: as §1, §2, §3, §4
as §6, with “S1-M1” for “HL-60/ADR”, “MXR transporter” for “multidrug resistance protein MRP1”, “Miltidrug” for “Multidrug”, “S1” for “HL-60”

[5] = tested on: tubulin heterodimer; experiment: Competitive binding test, [3H]colchicine; design: species or system bovine; settings: [3H]colchicine 50 nM
Method: Medium is RPMI-1640 with L-glutamine, supplemented with 10% heat-inactivated fetal calf serum, 100 units/ml penicillin, and 100 μg/ml streptomycin (Gibco, Grand Island, N.Y.). Microtubule-associated protein (MAP)-rich tubulin, containing about 70% tubulin and 30% MAPs (#ML113), and highly purified tubulin (>99% pure, #TL238), both from bovine brain, are obtained from Cytoskeleton, Inc., Denver, Colo. PEM buffer (80 mM piperazine-N,N′-bis[2-ethanesulfonic acid], pH 6.9, 1 mM ethylene glycol-bis(β-aminoethyl ether)-N,N,N′,N′-tetraacetic acid, 1 mM magnesium chloride) and guanosine 5′-triphosphate (GTP) are also obtained from Cytoskeleton. [3H]paclitaxel, specific activity 14.7 Ci/mmol, is purchased from Moravek Biochemicals (Brea, Calif.). [^3H]vinblastine, specific activity 9.60 Ci/mmol and MicroSpin G-50 columns are obtained from Amersham Biosciences (Piscataway, N.J.). […] Other reagents are obtained from Sigma (St. Louis, Mo.).
The binding of examples of this invention to highly purified tubulin is studied by competitive inhibition methods. […] To study possible competition at the taxane site, on the other hand, polymerized tubulin (microtubules) is used because paclitaxel binds preferentially to microtubules.
Highly purified tubulin is dissolved in PEM buffer without GTP and used at a final concentration of 1.0 to 1.3 mg/ml (10 to 13 μM). […] These solutions are incubated at 24° for 1 hr and then applied to MicroSpin G-50 columns which are centrifuged for 2 min at 3000 rpm in an Eppendorf 5415C microfuge. An aliquot of each column effluent (containing tubulin and bound radioligand) is mixed with scintillation fluid and counted in a liquid scintillation spectrometer. […] The ability of the competitor to inhibit the binding of the radioligand is expressed as a percentage of control binding in the absence of any competitor.

Structure (SMILES) | IC50 ([1]; KB cells, MTS) [nM] | IC50 [2] [nM] | Ratio VI/KB [2] | recognition by P-glycoprotein [2] | IC50 [3] [nM] | Ratio [3] | IC50 [4] [nM] | [3H]Colchicine binding, percent of control without competitor, Mean [5] [%] | IC50 ([1]; KB) [nM] | IC50 ([3]; HL-60/ADR cells, MTS) [nM] | Ratio VI/KB ([2]; listed as paclitaxel)
C[C@H](Nc1c(-c2c(F)cc(OCCCN(C)C)cc2F)c(Cl)nc2ncnn12)C(F)(F)F.Cl [Example 1a, 5-chloro-6-{4-[3-(dimethylamino)propoxy]-2,6-difluorophenyl}-N-[(1S)-2,2,2-trifluoro-1-methylethyl][1,2,4]triazolo[1,5-a]pyrimidin-7-amine hydrogen chloride Salt] | 28 | 103 | 3.7 | show recognition by P-glycoprotein | 63 | 0.89 | 73 | 129 |  |  | 
CNCCCOc1cc(F)c(-c2c(Cl)nc3ncnn3c2N[C@@H](C)C(F)(F)F)c(F)c1.Cl [Example 2a, 5-Chloro-6-{2,6-difluoro-4-[3-(methylamino)propoxy]phenyl}-N-[(1S)-2,2,2-trifluoro-1-methylethyl][1,2,4]triazolo[1,5-a]pyrimidin-7-amine hydrogen chloride] |  | 1120 | 48 | show recognition by P-glycoprotein | 47 | 1.1 | 70 | 122 | 24 |  | 
CNCCCOc1cc(F)c(-c2c(Cl)nc3ncnn3c2NCC(F)(F)F)c(F)c1.Cl [Example 3a, 5-Chloro-6-{2,6-difluoro-4-[3-(methylamino)propoxy]phenyl}-N-(2,2,2-trifluoroethyl)[1,2,4]triazolo[1,5-a]pyrimidin-7-amine hydrogen chloride Salt] | 18 | 2150 | 119 | show recognition by P-glycoprotein |  | 0.81 | 61 | 134 |  | 21 | 
CN(C)CCCOc1cc(F)c(-c2c(Cl)nc3ncnn3c2NCC(F)(F)F)c(F)c1.Cl [Example 4a, 5-Chloro-6-{4-[3-(dimethylamino)propoxy]-2,6-difluorophenyl}-N-(2,2,2-trifluoroethyl)[1,2,4]triazolo[1,5-a]pyrimidin-7-amine Hydrogen chloride Salt] | 24 | 162 | 7 | show recognition by P-glycoprotein |  | 0.65 | 72 | 134 |  | 34 | 
C[C@H](Nc1c(-c2c(F)cc(OCCCO)cc2F)c(Cl)nc2ncnn12)C(F)(F)F [Example 20, 3-[4-(5-Chloro-7-{[(1S)-2,2,2-trifluoro-1-methylethyl]amino}[1,2,4]triazolo[1,5-a]pyrimidin-6-yl)-3,5-difluorophenoxy]propan-1-ol] | 57 | 73 |  | not recognized at all by P-glycoprotein |  | 0.48 | 85 | 98 |  | 74 | 
C[C@H](Nc1c(-c2c(F)cc(OCCCN(C)C)cc2F)c(Br)nc2ncnn12)C(F)(F)F [Example 25, 5-Bromo-6-{4-[3-(dimethylamino)propoxy]-2,6-difluorophenyl}-N-[(1S)-2,2,2-trifluoro-1-methylethyl][1,2,4]triazolo[1,5-a]pyrimidin-7-amine] | 59 | 165 |  | not recognized at all by P-glycoprotein |  | 0.65 | 106 | 126 |  | 68 | 
OCCCOc1cc(F)c(-c2c(Cl)nc3ncnn3c2C2CCCCCC2)c(F)c1 [Example 30, 3-[4-(5-Chloro-7-cycloheptyl[1,2,4]triazolo[1,5-a]pyrimidin-6-yl)-3,5-difluorophenoxy]propan-1-ol] | 72 | 97 |  | not recognized at all by P-glycoprotein |  | 0.94 | 66 | 112 |  | 52 | 
CNCCCOc1cc(F)c(-c2c(Cl)nc3ncnn3c2C2CCCCCC2)c(F)c1.O=C(O)C(F)(F)F [Example 32, 3-[4-(5-Chloro-7-cycloheptyl[1,2,4]triazolo[1,5-a]pyrimidin-6-yl)-3,5-difluorophenoxy]-N-methylpropan-1-amine trifluoroacetic acid salt] | 11 | 108 | 9.9 | show recognition by P-glycoprotein |  | 0.92 | 11 | 94 |  | 6.6 | 
CC(=O)O[C@H]1C(=O)[C@@]2(C)[C@H]([C@H](OC(=O)c3ccccc3)[C@]3(O)C[C@H](OC(=O)[C@H](O)[C@@H](NC(=O)c4ccccc4)c4ccccc4)C(C)=C1C3(C)C)[C@]1(OC(C)=O)CO[C@@H]1C[C@@H]2O [Paclitaxel, reference compound] | 2.9 | > 1000 | >345 |  |  | 1.1 | 8.1 | 93 |  | 6.4 | > 345
